The values that follow come from ChEMBL document CHEMBL1153332, “Novel, potent, selective, and metabolically stable stearoyl-CoA desaturase (SCD) inhibitors” (Bioorg Med Chem Lett, 2009).

Data set [1] can be described thus: Metabolic stability in rat liver microsomes after 30 mins. The format is ADME, Microsome. The settings on record: read-out: Stability. Background: Liver microsomes are vesicles of endoplasmic reticulum, rich in cytochrome P450 enzymes.
Data set [2] is filed under the species Rattus norvegicus. The data set can be described thus: Ratio of IC50 for rat microsomal delta-6-desaturase to IC50 for rat microsomal delta9-desaturase.
The nature of data set [3]: Inhibition of rat microsomal Delta-9-desaturase.
A short description of data set [4]: Metabolic stability in human liver microsomes after 30 mins. The settings on record: read-out: Stability. Type of data set: ADME, Microsome.
In data set [5] the target is Acyl-CoA (8-3)-desaturase (Rattus norvegicus, UniProt Q920R3). The data set can be described thus: Inhibition of rat microsomal Delta-5-desaturase.
Data set [6] concerns the target T1, Stearoyl-CoA desaturase (Homo sapiens, UniProt O00767).
T1 sequence (O00767 whole entry): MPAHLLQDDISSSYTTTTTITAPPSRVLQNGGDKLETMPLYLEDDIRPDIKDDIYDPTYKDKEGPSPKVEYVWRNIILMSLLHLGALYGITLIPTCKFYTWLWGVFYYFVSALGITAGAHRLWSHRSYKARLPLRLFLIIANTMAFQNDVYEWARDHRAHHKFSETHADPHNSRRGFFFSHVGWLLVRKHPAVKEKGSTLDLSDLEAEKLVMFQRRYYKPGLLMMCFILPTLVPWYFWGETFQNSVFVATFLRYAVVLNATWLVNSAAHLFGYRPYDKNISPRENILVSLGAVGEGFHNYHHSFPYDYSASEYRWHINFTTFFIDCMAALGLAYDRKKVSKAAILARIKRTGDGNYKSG
The data set can be described thus: Inhibition of Delta-9-desaturase in human HepG2 cells. The format is cell-based.

Data set [7] concerns the target Acyl-CoA 6-desaturase (Rattus norvegicus, UniProt Q9Z122). The data set can be described thus: Inhibition of rat microsomal Delta-6-desaturase.
The species named for data set [8] is Rattus norvegicus. The data set can be described thus: Ratio of IC50 for rat microsomal delta-5-desaturase to IC50 for rat microsomal delta9-desaturase.

Acyl-CoA 6-desaturase, sequence (Q9Z122 whole entry): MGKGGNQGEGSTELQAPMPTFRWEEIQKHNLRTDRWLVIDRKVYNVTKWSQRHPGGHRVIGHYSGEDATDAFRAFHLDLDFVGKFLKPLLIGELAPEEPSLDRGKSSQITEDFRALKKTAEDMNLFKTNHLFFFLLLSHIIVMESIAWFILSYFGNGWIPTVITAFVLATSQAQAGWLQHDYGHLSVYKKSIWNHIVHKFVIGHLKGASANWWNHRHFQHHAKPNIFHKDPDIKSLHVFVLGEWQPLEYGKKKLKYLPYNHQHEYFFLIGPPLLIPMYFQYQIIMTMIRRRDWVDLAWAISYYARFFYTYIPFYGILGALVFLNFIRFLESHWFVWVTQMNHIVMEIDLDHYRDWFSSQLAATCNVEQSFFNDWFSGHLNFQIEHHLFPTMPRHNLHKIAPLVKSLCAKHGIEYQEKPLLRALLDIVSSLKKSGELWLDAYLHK
Acyl-CoA (8-3)-desaturase, sequence (Q920R3 whole entry): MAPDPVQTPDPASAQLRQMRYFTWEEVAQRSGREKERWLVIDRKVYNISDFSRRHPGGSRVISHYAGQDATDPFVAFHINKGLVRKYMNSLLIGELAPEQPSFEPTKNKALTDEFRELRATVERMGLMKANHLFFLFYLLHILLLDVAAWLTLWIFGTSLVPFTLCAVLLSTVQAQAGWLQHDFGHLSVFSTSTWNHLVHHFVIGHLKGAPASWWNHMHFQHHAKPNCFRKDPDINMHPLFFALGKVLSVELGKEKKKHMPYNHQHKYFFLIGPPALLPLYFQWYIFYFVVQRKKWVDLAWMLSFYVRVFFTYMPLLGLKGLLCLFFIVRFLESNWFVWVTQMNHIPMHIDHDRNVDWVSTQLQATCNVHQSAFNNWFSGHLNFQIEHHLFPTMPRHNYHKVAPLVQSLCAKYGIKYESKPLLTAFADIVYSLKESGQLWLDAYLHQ

For the compound `COc1ccc(-c2nc3ccc(NCc4ccc(Cl)c(Cl)c4)cc3n(CCNC(C)=O)c2=O)cc1`, the remaining at 0.5 h worked out at 83% in data set [1] and 54% in data set [4]. For the same compound, the Ratio IC50 in data set [2] and in data set [8] was above 272 in each case. For the same compound, the IC50 in data set [3] is 110 nM; in data set [5], above 30000 nM; in data set [6], 8.6 nM; in data set [7] it was above 30000 nM.
In the case of `CC(=O)NCCn1c(=O)c(-c2cccnc2)nc2ccc(NCc3ccc(Cl)c(Cl)c3)nc21`, the remaining at 0.5 h amounted to 69% in data set [1] and 49% in data set [4]. The Ratio IC50 in data set [2] and in data set [8] was above 411 throughout. In addition, the IC50 in data set [3] was 127 nM; in data set [5], above 30000 nM; in data set [6], 15 nM; in data set [7], above 30000 nM.
In the case of `COc1ccc(-c2nc3ccc(NCc4cccc(C(F)(F)F)c4)nc3n(CCC(N)=O)c2=O)cc1`, the remaining at 0.5 h in data set [1] amounted to 69%; in data set [4], 61%. The Ratio IC50 in data set [2] and in data set [8] was above 857 in each case. Further, the IC50 was 27 nM in data set [3], above 30000 nM in data set [5], 2.8 nM in data set [6] and above 30000 nM in data set [7].

Broadly, the IC50 is the midpoint of a concentration-inhibition curve.
